The numbers were not newly measured in US8778989B2, “Cosmetic composition comprising a lipid fraction from vegetable source and anticrystaling agent” (Natura Cosmeticos S.A., priority 2004, dated 2014), which cites them from elsewhere.

Like-named read-outs stand apart in the source and are kept apart here.

As for `CCCCC/C=C\C/C=C\CCCCCCCC(=O)O` [Linoleic, 9,12-linoleic acid], the “Relative Velocity of Oxidation of Fatty Acids” value (shortened to “Relative Velocity”) is 48 (T = 20° C.), 42 (T = 37° C.) and 64 (T = 100° C.). Also, the “oxidation rate relative to oleic acid” value (as fast as oleic acid) was 15 times.

For the compound `CCCCCCCCCCCCCCCCCC(=O)O` [Stearic], where the note is “T = 100° C.”, the “Relative Velocity” value was 0.6.

As to `CCCCCCCC/C=C\CCCCCCCC(=O)O` [Oleic, oleic acid], the “Relative Velocity” value (T = 20° C.) is listed as 4 and the “Relative Velocity” value (T = 100° C.) is listed as 6.
